Assay results reported in PMC12135066, “Design and Preclinical Evaluation of Novel uPAR-Targeting Radiopeptides Modified with an Albumin-Binding Entity” (Molecular Pharmaceutics, 2025).

Tests used:
[1] = n-Octanol/PBS distribution coefficients (logD values); conditions: n-octanol/PBS pH 7.4, pH 7.4
Protocol: The radiopeptides diluted in phosphate-buffered saline (PBS) pH 7.4 (25 μL, ∼0.5 MBq, 0.01 nmol) were added to a mixture of PBS pH 7.4 (1475 μL) and n-octanol (1500 μL). The vials were vortexed vigorously for 1 min, followed by centrifugation (560 rcf, 6 min) for phase separation. Aliquots were taken from each phase and measured in a γ-counter (1480 Wizard, PerkinElmer). The distribution coefficients were calculated as the logarithmic value of the ratio of counts per minute (cpm) measured in the n-octanol phase relative to the cpm measured in the PBS phase.
Methods: The logD value of all radiopeptides was determined in a mixture of n-octanol and phosphate
buffered saline (PBS) pH 7.4 using phase separation followed by liquid-liquid extraction.
polystyrene radioimmunoassay (RIA) tubes were prepared for each radiopeptide with 1.5 mL n-octanol
and 1.475 mL PBS pH 7.4. The RIA tubes were rigorously vortexed and subsequently let to stand so
that the phase separation could take place. The radiopeptides (50 MBq/nmol) were diluted with PBS
pH 7.4 to obtain an activity concentration of 10 MBq/0.5 mL. A volume of 25 μL of these solutions
was added to each RIA tube (25 µL, ~0.5 MBq, 0.01 nmol) followed by vortexing for 1 min.
separation was achieved by centrifugation at 560 rcf for 6 min. The activity in the n-octanol and PBS
phase, respectively, was measured in a γ-counter (Wallac Wizard 1480, PerkinElmer).
coefficients were calculated as the logarithm of the ratio of counts per minute (cpm) measured in the n-
octanol phase relative to the cpm measured in the PBS pH 7.4 phase.
as described above three independent times for each radiopeptide.

[2] = target: T1, human uPAR (Homo sapiens, UniProt Q03405); assay: uPAR-binding affinity (KD values), saturation experiments with HEK-uPAR cells; conditions: saturation binding on HEK-uPAR cells, on ice (4 °C) 1 h, 1–1600 nM radiopeptide, ± AE105 40 µM; γ-counter; nonlinear regression; average ± SD, n=3
T1 construct: host or cells: HEK cells (HEK-uPAR)
Procedure, shortened: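 HEK-uPAR cells incubated 1 h at 4 °C (on ice) with radiopeptide at 1–1600 nM final, with or without 40 μM AE105 as blocker. Cell-bound activity counted in a γ-counter after NaOH lysis; KD from nonlinear regression of specific binding (total minus unspecific), mean ± SD of n = 3.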

[3] = system: human serum albumin (HSA); assay: Albumin-binding properties in human blood plasma (ultrafiltration assay)
Protocol: (§1) The relative albumin-binding affinities of the radiopeptides in mouse and human blood plasma were determined using an ultrafiltration assay with Amicon centrifugal filters (cutoff of 10 kDa; Merck Millipore), as previously reported (Supporting Information). A fixed amount of the respective radiopeptide (15 μL, ∼300 kBq, 0.006 nmol) was added to a defined volume (150 μL) of mouse and human blood plasma dilutions to obtain [mouse serum albumin (MSA)]-to-[radiopeptide] and [human serum albumin (HSA)]-to-[radiopeptide] molar concentration ratios of 0.01–12,500 and 0.01–20,000, respectively. The data were analyzed using a semilogarithmic Hill plot with the maximum binding set as 100% (GraphPad Prism software, version 8.3.1).
(§2) Determination of the Albumin-Binding Properties
(§3) Purpose: The radiopeptides were investigated with regard to their albumin-binding capabilities in vitro
(§4) as a measure to predict blood retention in vivo.
(§5) Methods: The relative albumin-binding affinity of the radiopeptides in mouse blood plasma (Rockland
(§6) Immunochemicals, Inc., U.S.A.) and human blood plasma (Stiftung Blutspende SRK Aargau-
(§7) Solothurn, Switzerland) were determined using an ultrafiltration method. The amount of mouse serum
(§8) albumin (MSA) and human serum albumin (HSA) in mouse and human blood plasma was defined as
(§9) 550 μM and 800 μM, respectively, based on measurements using a dry chemistry analyzer (DRI-CHEM
(§10) 4000i, FUJIFILM, Japan). A fixed amount of radiopeptide (50 MBq/nmol, ~300 kBq, 15 μL, 0.006
(§11) nmol) was added to a defined volume (150 μL) of mouse and human blood plasma and various dilutions
(§12) thereof in PBS pH 7.4, resulting in defined [MSA]-to-[radiopeptide] or [HSA]-to-[radiopeptide] molar
(§13) concentration ratios ranging from 0.01 ‒12500 and 0.01‒20000, respectively, followed by incubation of
(§14) the samples at 37 °C for 30 min. Ice-cold PBS (150 µL, pH 7.4) was added before loading the blood
(§15) plasma samples on Amicon centrifugal filters (cut -off of 10 kDa; Merck Millipore) followed by
(§16) centrifugation (14000 rcf, 30 min, 4 °C) to allow the separation of the plasma protein -bound from the
(§17) plasma-unbound (free) fractions of each sample. The inserts of the filter devices were inverted and centrifuged at 200 rcf for 3 min to recover the protein -bound radiopeptide. The activity in the filtrate
(§18) and filter unit was measured in a γ-counter (1480 Wizard, PerkinElmer) and the counts were combined
(§19) assuming that the fraction retained in the filter membrane was not bound to proteins. The protein -bound
(§20) fraction was expressed as percentage of the whole activity (i.e. plasma protein -bound activity, activity
(§21) measured in the filtrate and activity measured in the filter (set as 100%) ). The data were analyzed using
(§22) a semi-logarithmic plot assuming a maximum binding of 100%. The Hill equation was fitted to the data
(§23) points and the half -maximum binding ( B50) based on the average curve obtained from three independent
(§24) experiments (GraphPad Prism software, version 8.3 .1). The relative albumin-binding affinit ies of the
(§25) reference compound, whose relative binding affinity was set as 1.0. The results were presented as the
(§26) B50 value obtained from the average curve from 3 independent experiments.

[4] = Biodistribution studies in HEK-uPAR xenograft-bearing nude mice; conditions: female, mouse, 0.5 nmol, total radioactivity, 5 MBq, 0.5 nmol, decay-corrected, average ± SD, n=3 animals; for tissue uptake at 24 h: 24 h p.i.; for tissue uptake at 4 h: 4 h p.i.
Protocol: All applicable international, national, and/or institutional guidelines for the care and use of laboratory animals were followed, and the herein reported experiments were carried out according to the guidelines of the Swiss Regulations for Animal Welfare. The preclinical studies were ethically approved by the Cantonal Committee of Animal Experimentation and permitted by the responsible cantonal authorities (License No. 75721). Five-week-old female CD1/nude (Crl:CD1-Foxn ^ nu ) and female immunocompetent FVB (FVB/NCrl) mice were obtained from Charles River Laboratories (Sulzfeld, Germany). All mice were acclimatized for at least 7 days, receiving standard rodent chow ad libitum before being included in the reported studies. The CD1/nude mice were subcutaneously inoculated with HEK-uPAR cells (7 × 10^6 cells in 100 μL PBS) on the right shoulder. […] Typically, it took 3–11 weeks to reach xenograft volumes of 40–600 mm^3 at the time of testing the tissue distribution of the radiopeptides. The immunocompetent FVB mice were used for testing the in vivo stability of the radiopeptides.
The mice were injected with the radiopeptides (5 MBq, 0.5 nmol, 100 μL) in saline containing 0.05% BSA and sacrificed at 4 and 24 h after injection of the radiopeptides. Selected tissues and organs were collected, weighed, and measured with the γ-counter (1480 Wizard, PerkinElmer). […] A p-value of <0.05 was considered a statistically significant difference (GraphPad Prism software, version 8.3.1).
Decay-corrected data is shown as average ± SD of n = 3 animals of % injected activity per gram (IA/g) tissue.

[5] = Stability of the radiopeptides in human blood plasma; conditions: human
[6] = Radiolytic stability of the radiopeptides in saline with L-ascorbic acid; conditions: 50 MBq/nmol in saline, 150 MBq/300 µL, L-ascorbic acid (3 mg, 20 µL) and NaOAc (0.5 M, 30 µL), HPLC, product peak relative to t=0 (100%), average ± SD, n=3
Protocol: The radiolytic stability of the radiopeptides (50 MBq/nmol) in saline (150 MBq/300 μL) was assessed in the absence and presence of L-ascorbic acid (3 mg added in a volume of 20 μL). After an incubation period of 1, 4, and 24 h, aliquots of the solutions were analyzed using HPLC. The integrated peak area representing the intact radiopeptide was expressed as the percentage of the sum of all peaks of the chromatogram. The final amount of intact radiopeptide was expressed as the percentage of the product peak obtained at t = 0, which was set as 100% (Supporting Information).
The radiolytic stability of [177Lu]Lu-DOTA-AE105 and the new 177Lu-labeled uPAR-targeting
radiopeptides (50 MBq/nmol) was assessed in vitro in the formulated solution . The radiopeptide s were
diluted in saline to obtain an activity concentration of 150 MBq in 300 µL in the presence of L-ascorbic
acid (3 mg, 20 µL) and NaOAc (0.5 M, 30 µL) to compensate for the acidic pH. Aliquots of the dilutions
were analyzed using HPLC after incubation periods of 1 h, 4 h and 24 h . The integrated peak area
measured for the intact radioligand peak was expressed as the percentage of the sum of the integrated
peak areas of each peak present in the chromatogram. The final amount of intact radiopeptide at t = 1 h,
4 h and 24 h was expressed by correcting the obtained percentage of the product peak to this peak
obtained at t = 0, which was set as 100%.

[7] = system: mouse serum albumin (MSA); assay: Albumin-binding properties in mouse blood plasma (ultrafiltration assay)
Protocol: as §1, §2, §3, §4, §5, §6, §7, §8, §9, §10, §11, §12, §13, §14, §15, §16, §17, §18, §19, §20, §21, §22, §23, §24, §25, §26

[8] = Stability of the radiopeptides in mouse blood plasma; conditions: mouse
[9] = CD1/nude, blood, 5 MBq (0.5 nmol)
[10] = CD1/nude, bone, 5 MBq (0.5 nmol)
[11] = CD1/nude, brain, 5 MBq (0.5 nmol)
[12] = CD1/nude, heart, 5 MBq (0.5 nmol)
[13] = CD1/nude, intestines, 5 MBq (0.5 nmol)
[14] = CD1/nude, kidneys, 5 MBq (0.5 nmol)
[15] = CD1/nude, liver, 5 MBq (0.5 nmol)
[16] = CD1/nude, lung, 5 MBq (0.5 nmol)
[17] = CD1/nude, muscle, 5 MBq (0.5 nmol)
[18] = CD1/nude, pancreas, 5 MBq (0.5 nmol)
[19] = CD1/nude, salivary glands, 5 MBq (0.5 nmol)
[20] = CD1/nude, spleen, 5 MBq (0.5 nmol)
[21] = CD1/nude, stomach, 5 MBq (0.5 nmol)

T1 sequence (Q03405 23-335): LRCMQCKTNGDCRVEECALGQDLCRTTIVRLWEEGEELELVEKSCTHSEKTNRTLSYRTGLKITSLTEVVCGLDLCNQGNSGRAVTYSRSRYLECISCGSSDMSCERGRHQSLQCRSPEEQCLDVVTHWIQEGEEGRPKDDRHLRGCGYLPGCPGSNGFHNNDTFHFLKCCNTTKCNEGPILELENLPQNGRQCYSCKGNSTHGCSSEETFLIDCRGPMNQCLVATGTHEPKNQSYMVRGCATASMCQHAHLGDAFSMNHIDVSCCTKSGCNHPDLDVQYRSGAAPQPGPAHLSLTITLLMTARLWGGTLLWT

In the case of `CC(C)C[C@H](NC(=O)[C@H](Cc1ccc(O)cc1)NC(=O)[C@@H](CCCNC(=N)N)NC(=O)[C@@H](CO)NC(=O)[C@H](Cc1ccccc1)NC(=O)[C@H](CC1CCCCC1)NC(=O)[C@H](CC(=O)O)NC(=O)CCOCCOCCOCCOCCNC(=O)[C@H](CCCCNC(=O)CCCc1ccc(I)cc1)NC(=O)CN1CCN(CC(=O)O)CCN(CC(=O)O)CCN(CC(=O)O)CC1)C(=O)N[C@@H](Cc1c[nH]c2ccccc12)C(=O)N[C@@H](CO)C(N)=O` [[^177Lu]Lu-uPAR-05, metal not drawn], the logD [1] is reported as 0.24 ± 0.09, the Kd [2] is reported as 10 ± 5 nM and the “fold lower albumin-binding affinity than [177Lu]Lu-uPAR-01” value ([3]; human blood plasma, ultrafiltration) is reported as 2.4 fold. The “Relative albumin-binding affinity, human blood plasma” value ([3]; ultrafiltration (Amicon, 10 kDa), human blood plasma dilutions in PBS pH 7.4, [HSA]-to-[radiopeptide] 0.01–20000, 0.006 nmol, 37 °C 30 min, γ-counter, inverse ratio of B50, [177Lu]Lu-uPAR-01 set as 1.00, average curve of 3 experiments) was 0.43, the tissue uptake at 24 h ([4]; CD1/nude (Crl:CD1-Foxn nu), HEK-uPAR xenograft, HEK-uPAR xgft) was 3.1 ± 0.7 %ID/g and the tissue uptake at 4 h ([4]; CD1/nude, HEK-uPAR xenograft, 5 MBq (0.5 nmol), HEK-uPAR xgft) was 5.1 ± 1 %ID/g. It also gave a tissue uptake at 4 h [4, 9] of 12 ± 1 %ID/g, a tissue uptake at 24 h [4, 9] of 4.6 ± 0.3 %ID/g and a tissue uptake at 4 h [4, 10] of 1.1 ± 0.1 %ID/g. The tissue uptake at 24 h [4, 10] was 0.67 ± 0.06 %ID/g, the tissue uptake at 4 h [4, 11] was 0.27 ± 0.01 %ID/g and the tissue uptake at 24 h [4, 11] was 0.11 ± 0.02 %ID/g. For the same molecule, the tissue uptake at 4 h [4, 12] was 4.1 ± 0.2 %ID/g, the tissue uptake at 24 h [4, 12] was 1.6 ± 0.1 %ID/g and the tissue uptake at 4 h [4, 13] was 1.6 ± 0.1 %ID/g. It also gave a tissue uptake at 24 h [4, 13] of 0.73 ± 0.07 %ID/g, a tissue uptake at 4 h [4, 14] of 3.6 ± 0.2 %ID/g and a tissue uptake at 24 h [4, 14] of 1.6 ± 0.1 %ID/g. It also gave a tissue uptake at 4 h [4, 15] of 5.2 ± 0.6 %ID/g, a tissue uptake at 24 h [4, 15] of 1.1 ± 0.1 %ID/g and a tissue uptake at 4 h [4, 16] of 7 ± 0.5 %ID/g. The tissue uptake at 24 h [4, 16] was 2.6 ± 0.4 %ID/g, the tissue uptake at 4 h [4, 17] was 1.1 ± 0.1 %ID/g and the tissue uptake at 24 h [4, 17] was 0.41 ± 0.04 %ID/g. For the same molecule, the tissue uptake at 4 h [4, 18] was 1.4 ± 0.2 %ID/g, the tissue uptake at 24 h [4, 18] was 0.62 ± 0.07 %ID/g and the tissue uptake at 4 h [4, 19] was 2.5 ± 0.3 %ID/g. For the same molecule, the tissue uptake at 24 h [4, 19] was 1.1 ± 0.1 %ID/g, the tissue uptake at 4 h [4, 20] was 1.5 ± 0.1 %ID/g and the tissue uptake at 24 h [4, 20] was 0.82 ± 0.1 %ID/g. It also gave a tissue uptake at 4 h [4, 21] of 1.3 ± 0.1 %ID/g, a tissue uptake at 24 h [4, 21] of 0.64 ± 0.01 %ID/g and a remaining at 1 h, 10 MBq/200 µL ([5]; blood plasma) of 99 ± 1%. The remaining at 24 h, 10 MBq/200 µL ([5]; blood plasma) was 99 ± 1%, the remaining at 4 h, 10 MBq/200 µL ([5]; human blood plasma) was 99 ± 1% and the “radiolytic stability, % intact radiopeptide” value ([6]; 1 h) was 99 ± 2%. The “radiolytic stability, % intact radiopeptide” value ([6]; 4 h) was 97 ± 1%, the “radiolytic stability after 24 h, intact radiopeptide [%]” value ([6]; 24 h) was 93 ± 1% and the “fold lower albumin-binding affinity than [177Lu]Lu-uPAR-01” value ([7]; mouse blood plasma, ultrafiltration) was 1.6 fold. The “Relative albumin-binding affinity, mouse blood plasma” value ([7]; ultrafiltration (Amicon, 10 kDa), mouse blood plasma dilutions in PBS pH 7.4, [MSA]-to-[radiopeptide] 0.01–12500, 0.006 nmol, 37 °C 30 min, γ-counter, inverse ratio of B50, [177Lu]Lu-uPAR-01 set as 1.00, average curve of 3 experiments) was 0.61, the remaining at 1 h, 10 MBq/200 µL ([8]; blood plasma) was 99 ± 1% and the remaining at 24 h, 10 MBq/200 µL ([8]; blood plasma) was 98 ± 2%. The remaining at 4 h, 10 MBq/200 µL ([8]; mouse blood plasma) was 98 ± 2%.
